Measured values: patent US6710040B1, “Fluorinated cyclic amides as dipeptidyl peptidase IV inhibitors” (Pfizer Inc., priority 2002, dated 2004)
Structures can show the parent of a compound that is named as a salt.

SMILES	melting point
CCC(C)[C@H](N)C(=O)N1CCC(F)(F)CC1.Cl (some centres unmarked)	190 to 192 °C
C[C@H](N)C(=O)N1CC(F)(F)C(F)(F)C1.Cl	> 250 °C
CC[C@H](C)[C@H](N)C(=O)N1CC(F)C1 (as salt: hydrochloride) [Example 2, (2S,3S)-2-Amino-1-(3-fluoro-azetidin-1-yl)-3-methyl-pentan-1-one]	208 to 210 °C
CC[C@@H](C)[C@H](N)C(=O)N1CC(F)(F)C(F)(F)C1 (as salt: hydrochloride) [Example 4, (2S,3R)-2-Amino-3-methyl-1-(3,3,4,4-tetrafluoro-pyrrolidin-1-yl)-pentan-1-one]	> 250 °C
CC(C)[C@H](N)C(=O)N1CC(F)(F)C(F)(F)C1 (as salt: hydrochloride) [Example 6, (S)-2-Amino-3-methyl-1-(3,3,4,4-tetrafluoro-pyrrolidin-1-yl)-butan-1-one]	234 to 238 °C
CC[C@@H](C)[C@H](N)C(=O)N1CCC(F)(F)C1 [Example 7, (2S,3R)-2-Amino-1-(3,3-difluoro-pyrrolidin-1-yl)-3-methyl-pentan-1-one]	196 to 198 °C
CC[C@H](C)[C@H](N)C(=O)N1CCC(F)(F)C1 [Example 8, (2S,3S)-2-Amino-1-(3,3-difluoro-pyrrolidin-1-yl)-3-methyl-pentan-1-one]	195 to 198 °C

More lines, now with the values ahead:

melting point	SMILES
220 °C (dec.)	Cl.N[C@H](C(=O)N1CC(F)(F)C1)C1CCCCC1
195 °C (dec.)	CCC(C)[C@H](N)C(=O)N1CC(F)(F)C1.Cl (some centres unmarked)
278 °C	N[C@H](C(=O)N1CC(F)(F)C(F)(F)C1)C1CCCCC1 (as salt: hydrochloride) [Example 3, (S)-2-Amino-2-cyclohexyl-1-(3,3,4,4-tetrafluoro-pyrrolidin-1-yl)-ethanone]
238 to 240 °C	N[C@H](C(=O)N1CC(F)C1)C1CCCCC1 (as salt: hydrochloride) [Example 5, (S)-2-Amino-2-cyclohexyl-1-(3-fluoro-azetidin-1-yl)-ethanone]
